# Legend:
# [1] = molecular target: T1, SdCPS2 (Scoparia dulcis, UniProt A0A1U8XUA9); test: GC-MS of n-hexane extract of recombinant E. coli cultures; assay type: cell-based; conditions: GGPP supplied by co-expressed SdGGPPS; 16 °C; product seen as dephosphorylated alcohol
# T1 construct: gene CPS2; full ORF 2412 bp, 804 residues
# T1 sequence (A0A1U8XUA9 81-804): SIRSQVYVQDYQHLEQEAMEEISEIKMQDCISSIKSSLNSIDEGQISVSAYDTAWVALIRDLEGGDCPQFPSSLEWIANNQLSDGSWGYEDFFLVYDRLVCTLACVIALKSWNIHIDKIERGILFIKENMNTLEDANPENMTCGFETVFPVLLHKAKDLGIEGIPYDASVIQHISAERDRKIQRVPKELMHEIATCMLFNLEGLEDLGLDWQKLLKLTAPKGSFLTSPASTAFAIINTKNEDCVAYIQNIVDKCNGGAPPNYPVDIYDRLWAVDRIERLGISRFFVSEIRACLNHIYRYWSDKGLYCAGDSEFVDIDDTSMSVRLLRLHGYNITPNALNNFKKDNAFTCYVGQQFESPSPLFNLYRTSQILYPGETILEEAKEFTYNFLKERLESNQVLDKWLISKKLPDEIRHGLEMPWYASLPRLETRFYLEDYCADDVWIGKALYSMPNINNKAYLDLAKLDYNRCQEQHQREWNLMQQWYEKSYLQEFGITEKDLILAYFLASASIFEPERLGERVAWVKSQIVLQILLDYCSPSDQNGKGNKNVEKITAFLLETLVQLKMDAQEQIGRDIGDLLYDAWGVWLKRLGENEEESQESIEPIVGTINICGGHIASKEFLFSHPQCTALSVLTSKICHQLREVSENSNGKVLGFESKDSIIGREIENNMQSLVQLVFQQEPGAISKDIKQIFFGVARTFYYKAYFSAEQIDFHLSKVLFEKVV
# [2] = molecular target: T2, OsKSL4 (Oryza sativa, UniProt Q0JEZ8); test: as above; assay type: cell-based; conditions: reference enzyme; syn-CPP supplied by co-expressed SdCPS2 or OsCPS4 with SdGGPPS; 16 °C; product 7
# T2 construct: gene KSL4; in pET28b (NcoI/NotI), expressed in E. coli C41
# T2 sequence (Q0JEZ8 57-842): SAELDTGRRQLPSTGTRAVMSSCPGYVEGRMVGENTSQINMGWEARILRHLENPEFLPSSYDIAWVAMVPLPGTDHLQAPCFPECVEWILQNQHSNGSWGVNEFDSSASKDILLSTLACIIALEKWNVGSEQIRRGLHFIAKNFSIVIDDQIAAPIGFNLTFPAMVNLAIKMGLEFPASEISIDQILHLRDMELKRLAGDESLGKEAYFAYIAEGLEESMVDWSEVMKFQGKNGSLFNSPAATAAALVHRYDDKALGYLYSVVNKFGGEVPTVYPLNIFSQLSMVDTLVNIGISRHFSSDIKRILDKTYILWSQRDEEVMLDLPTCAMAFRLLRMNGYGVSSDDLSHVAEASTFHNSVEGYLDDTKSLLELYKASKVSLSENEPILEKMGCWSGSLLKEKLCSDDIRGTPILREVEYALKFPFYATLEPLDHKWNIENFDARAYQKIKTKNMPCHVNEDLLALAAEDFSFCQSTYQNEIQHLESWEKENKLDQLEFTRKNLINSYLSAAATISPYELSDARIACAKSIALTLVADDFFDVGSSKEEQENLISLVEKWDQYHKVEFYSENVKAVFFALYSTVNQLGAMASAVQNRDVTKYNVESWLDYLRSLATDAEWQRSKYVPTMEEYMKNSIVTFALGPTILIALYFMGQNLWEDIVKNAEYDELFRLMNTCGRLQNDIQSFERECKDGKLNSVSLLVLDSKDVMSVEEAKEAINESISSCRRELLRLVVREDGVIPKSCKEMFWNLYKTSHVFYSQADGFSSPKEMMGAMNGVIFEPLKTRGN
Compound,GC-MS of n-hexane extract of recombinant E. coli cultures [1],GC-MS of n-hexane extract of recombinant E. coli cultures [2]
"CC(C)=CCC/C(C)=C/CC/C(C)=C/CC/C(C)=C/COP(=O)(O)OP(=O)(O)O [compound 2, geranylgeranyl diphosphate]",The SdCPS2 catalyzed a cyclization reaction from GGPP to syn-CPP,
"C=C1CC[C@H]2C(C)(C)CCC[C@]2(C)[C@@H]1CC/C(C)=C/COP(=O)(O)OP(=O)(O)O [compound 3, syn-copalyl diphosphate]",,"SdCPS2 could be cyclized by OsKSL4, whose substrate is a syn-copalyl diphosphate"

# — article PMC9824296, “Functional Characterization of Three Diterpene Synthases Responsible for Tetracyclic Diterpene Biosynthesis in Scoparia dulcis” (Plants, 2022)
